Our source for the TGI values is PubChem BioAssay (NCI).

Test systems include SF-295 CNS; XF 498 CNS; UACC-62 melanoma; MALME-3M melanoma; NCI-H460 lung; DMS 273 small cell lung; KM20L2 colon; DLD-1 colon; NCI-H522 lung.
Assay in all cases: NCI tumour cell line growth inhibition, 48 h

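1) Cells in 96-well plates. 2) Compound, 48 h, 5 concentrations. 3) Linear interpolation between surrounding doses. 4) Unreached endpoint = highest concentration. TGI is the concentration that stops growth completely.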

On to `COc1cc([C@H]2c3cc4c(cc3[C@H](NCc3ccc(F)cc3)C3COC(=O)[C@H]32)OCO4)cc(OC)c1O` (stereo partly specified), for which the TGI in the assay with SF-295 CNS came out at 17.9 µM; with XF 498 CNS, 9.67 µM; in the assay on UACC-62 melanoma, 6.68 µM; in the assay with MALME-3M melanoma, 19.5 µM; with NCI-H460 lung, 12.3 µM; in the assay with DMS 273 small cell lung it was 13.8 µM. Besides, the values for the TGI in the assay with KM20L2 colon, in the assay with DLD-1 colon and in the assay with NCI-H522 lung were 15.8 µM, above 100 µM and 9.48 µM, respectively.

In the case of `Cc1cc2nc3c(C(OC4OC(CO)C(O)C(O)C4O)C(O)CO)nn(-c4ccc(F)cc4)c3nc2cc1C` (stereo unspecified), the TGI with SF-295 CNS, in the assay on XF 498 CNS, with UACC-62 melanoma, in the assay on MALME-3M melanoma, with NCI-H460 lung and in the assay with KM20L2 colon was above 100 µM throughout. Besides, the TGI with DLD-1 colon and with NCI-H522 lung was above 100 µM throughout.

On to `CCOc1ccccc1NC(=O)C1=C(C)NC(C)=C(C(=O)Nc2ccccc2OCC)C1c1ccc2c(c1)OCO2`, for which the TGI was 74.6 µM with SF-295 CNS; 49.6 µM in the assay with XF 498 CNS; 83.5 µM with MALME-3M melanoma; above 100 µM with NCI-H460 lung; above 100 µM in the assay on KM20L2 colon; above 100 µM in the assay with DLD-1 colon. Also, the TGI in the assay with NCI-H522 lung amounted to 29.8 µM.

As for `COc1ccc(/C(C#N)=C2/O/C(=N/N)C(c3ccc(OC)c(OC)c3)C2=O)cc1OC` (stereo unspecified), the TGI with SF-295 CNS, in the assay with XF 498 CNS, with UACC-62 melanoma, with MALME-3M melanoma, with DMS 273 small cell lung and in the assay with KM20L2 colon was above 100 µM throughout. Moreover, the TGI in the assay on DLD-1 colon and in the assay on NCI-H522 lung was above 100 µM in each case.

Regarding `NC(=O)C1C(=O)Oc2cccnc21` (stereo unspecified), the TGI in the assay with SF-295 CNS, with XF 498 CNS, in the assay with UACC-62 melanoma, with MALME-3M melanoma, with NCI-H460 lung and in the assay on DMS 273 small cell lung was above 100 µM in each case. The TGI in the assay on KM20L2 colon, with DLD-1 colon and with NCI-H522 lung was above 100 µM in each case.

As for `CN(C)CN(C)c1nc(N(C)C)nc(N(C)C)n1`, the TGI with SF-295 CNS, in the assay with XF 498 CNS, with UACC-62 melanoma, with MALME-3M melanoma, in the assay with NCI-H460 lung and in the assay on DMS 273 small cell lung was above 100 µM throughout. In addition, the TGI with KM20L2 colon, in the assay on DLD-1 colon and with NCI-H522 lung was above 100 µM throughout.

In the case of `O=C(O)c1cc2ccc(Cl)cc2c(O)c1C1=CCCCC1`, the TGI with SF-295 CNS is above 100 µM; with XF 498 CNS, 51 µM; with UACC-62 melanoma, 77.5 µM; in the assay on MALME-3M melanoma, above 100 µM; with NCI-H460 lung, above 100 µM; in the assay on DMS 273 small cell lung, 68.8 µM. Also, the TGI is above 100 µM in the assay with KM20L2 colon, above 100 µM in the assay on DLD-1 colon and 92.9 µM in the assay on NCI-H522 lung.

Regarding `COc1ccc(C2C(C(=O)O)=C(COC(C)=O)Oc3cc4c(cc32)OCO4)c(OC)c1` (stereo unspecified), the TGI with SF-295 CNS, with XF 498 CNS, in the assay on UACC-62 melanoma, with MALME-3M melanoma, in the assay on NCI-H460 lung and in the assay with DMS 273 small cell lung was above 100 µM throughout. Also, the TGI with KM20L2 colon and in the assay on DLD-1 colon was above 100 µM throughout.

As to `c1ccc2c(c1)n1nnnc1c1nnnn21`, the TGI with SF-295 CNS, in the assay with XF 498 CNS, in the assay on UACC-62 melanoma, with MALME-3M melanoma, in the assay with NCI-H460 lung and with DMS 273 small cell lung was above 100 µM throughout. In addition, the TGI in the assay on KM20L2 colon, in the assay with DLD-1 colon and with NCI-H522 lung was above 100 µM each time.

`Cc1c(C(=O)/C=C/c2ccc3c(c2)OCO3)[n+](=O)c2ccccc2n1[O-]`: the TGI in the assay on SF-295 CNS was 95.7 µM; with XF 498 CNS, 92.8 µM; in the assay with UACC-62 melanoma, 75.2 µM; in the assay with MALME-3M melanoma, above 100 µM; in the assay with NCI-H460 lung, 75.6 µM; in the assay with DMS 273 small cell lung, 52.6 µM. The values for the TGI in the assay on KM20L2 colon, in the assay on DLD-1 colon and in the assay with NCI-H522 lung were 48.3 µM, above 100 µM and 36.9 µM, respectively.

As to `Nc1cccc(C(=O)/C=C/c2ccccc2O)c1`, the TGI in the assay on SF-295 CNS, with XF 498 CNS, in the assay on UACC-62 melanoma, with MALME-3M melanoma, with NCI-H460 lung and in the assay on DMS 273 small cell lung was above 100 µM each time. Besides, the TGI with KM20L2 colon, in the assay on DLD-1 colon and in the assay on NCI-H522 lung was above 100 µM throughout.

On to `O=C(Cn1ccnc1[N+](=O)[O-])NCc1ccc(F)cc1`, for which the TGI in the assay on SF-295 CNS, with XF 498 CNS, in the assay with UACC-62 melanoma, with MALME-3M melanoma, in the assay with NCI-H460 lung and in the assay on DMS 273 small cell lung was above 100 µM throughout. For the same compound, the TGI in the assay with KM20L2 colon and in the assay on NCI-H522 lung was above 100 µM each time.

On to `CNC(=O)N(CCCCC(NC(C)=O)C(=O)NCc1ccccc1)Cc1ccccc1` (stereo unspecified), for which the TGI with SF-295 CNS, with XF 498 CNS, in the assay on UACC-62 melanoma, in the assay with MALME-3M melanoma, in the assay with NCI-H460 lung and in the assay on DMS 273 small cell lung was above 100 µM in each case. For the same compound, the TGI in the assay with KM20L2 colon, with DLD-1 colon and in the assay with NCI-H522 lung was above 100 µM throughout.
